Source: patent US20250250230A1, “HETEROCYCLIC COMPOUND” (TAKEDA PHARMACEUTICAL COMPANY LIMITED, priority 2022, published 2025)

What was measured:
cynomolgus monkeys = assay: Evaluation of wake-promoting effects in cynomolgus monkeys (EEG/EMG); assay type: in vivo, cynomolgus monkey; settings: 10 mg/kg p.o. at ZT12, time spent in wakefulness for 4 h after administration, male cynomolgus monkeys, n=2
Description: The wake-promoting effects were evaluated by measuring the electroencephalogram (EEG) and electromyogram (EMG) in cynomolgus monkeys. Under isoflurane anesthesia (0.5-5%, Pfizer Japan Inc., Tokyo, Japan), male cynomolgus monkeys (2-3 years old, Hamri Co., Ltd., Ibaraki, Japan) were surgically implanted with radio-telemetry transmitters (L03-F3, Data Sciences International Inc., MN, USA). EEG electrodes were screwed into the skull at the parietal area. EMG electrodes were implanted on the cervical muscles. After the surgery, each monkey was given penicillin (100,000 units/head, i.m., Meiji Seika Pharma Co., Ltd., Tokyo, Japan), buprenorphine (0.02 mg/kg, i.m., Otsuka Pharmaceutical Co., Ltd., Tokyo, Japan) and prednisolone (1 mg/kg, s.c., Kyoritsu Seiyaku Co., Ltd., Tokyo, Japan) daily for one week. After at least a 1-month recovery period in home cages, the monkeys were habituated to the recording chamber placed in a soundproof room. EEG and EMG signals were recorded using the telemetry system (Ponemah software, Data Sciences International Inc., MN, USA) and the signals were analyzed using SleepSign software (Kissei Comtec Co., Ltd., Nagano, Japan). After confirming long sleep in dark phase in the experimental room, we used animals to examine the wake-promoting effect of compounds. Test compounds (10 mg/kg) suspended in 0.5% methylcellulose aqueous solution, or vehicle (i.e., 0.5% methylcellulose aqueous solution) was administered orally (p.o.) to monkeys at zeitgeber time 12 (ZT12) in a volume of 5 mL/kg body weight in pre-post design (n=2). EEG and EMG recordings were performed for 4 h after the compound administration. The time spent in wakefulness for 4 h after administration (% of vehicle treatment) was calculated by using SleepSign.

[1] = molecular target: T1, human orexin type 2 receptor (Homo sapiens, UniProt O43614); assay: Measurement of orexin type 2 receptor agonist activity (calcium fluorescence, Fluo-4 AM, FDSS); assay type: cell-based; settings: test compound 3 μM; CHO cells expressing human OX2 receptor; DMSO = 0%, orexin A (human) = 100%
T1 construct: expressed in transfected cells
T1 sequence (O43614 1-444): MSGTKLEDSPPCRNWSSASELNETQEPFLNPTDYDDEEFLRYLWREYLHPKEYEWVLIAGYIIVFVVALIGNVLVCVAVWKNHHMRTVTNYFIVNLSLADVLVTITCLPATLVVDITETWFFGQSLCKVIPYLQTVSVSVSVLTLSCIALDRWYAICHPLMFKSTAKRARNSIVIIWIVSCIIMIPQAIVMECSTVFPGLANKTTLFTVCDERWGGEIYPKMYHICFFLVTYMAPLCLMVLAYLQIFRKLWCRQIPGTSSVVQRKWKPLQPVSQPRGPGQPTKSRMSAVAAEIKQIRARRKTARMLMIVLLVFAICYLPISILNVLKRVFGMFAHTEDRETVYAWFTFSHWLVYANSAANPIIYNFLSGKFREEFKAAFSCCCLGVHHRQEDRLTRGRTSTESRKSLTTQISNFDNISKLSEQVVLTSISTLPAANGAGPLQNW
Outline: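 CHO-K1 cells stably expressing human OX2R were loaded with Fluo-4 AM (30 min 37 °C, 30 min RT) in HEPES-buffered HBSS with 0.1% BSA and probenecid. Calcium fluorescence was followed on FDSS for 2 min after compound addition; activity normalised to DMSO (0%) and 10 nM orexin A (100%).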

Row | SMILES | OX2R agonist activity (3 μM, %) [1] | Wakefulness time (% of vehicle treatment) (Mean) (cynomolgus monkeys)
1 | Cc1ccc([C@]2(F)C[C@H]2C(=O)N2C[C@@H](F)[C@H]2CNS(C)(=O)=O)c(-c2c(F)cccc2F)c1 [Example 411, N-({(2R,3R)-1-[(1S,2S)-2-(2′,6′-difluoro-5-methyl [1,1′-biphenyl]-2-yl)-2-fluorocyclopropane-1-carbonyl]-3-fluoroazetidin-2-yl}methyl)methanesulfonamide] | 95% | 361.41 % of vehicle treatment
2 | C[C@@H]1CN(C(=O)[C@@H]2C[C@@]2(F)c2ccccc2-c2c(F)cccc2F)[C@@H]1CNS(C)(=O)=O [Example 358, N-({(2S,3R)-1-[(1S,2S)-2-(2′,6′-difluoro[1,1′-biphenyl]-2-yl)-2-fluorocyclopropane-1-carbonyl]-3-methylazetidin-2-yl}methyl)methanesulfonamide] | 96% | 407.11 % of vehicle treatment
3 | CCS(=O)(=O)NC[C@@H]1[C@H](F)CN1C(=O)[C@@H]1C[C@@]1(F)c1ccccc1-c1c(F)cccc1F [Example 393, N-({(2R,3R)-1-[(1S,2S)-2-(2′,6′-difluoro [1,1′-biphenyl]-2-yl)-2-fluorocyclopropane-1-carbonyl]-3-fluoroazetidin-2-yl}methyl)ethanesulfonamide] | 104% | 731.96 % of vehicle treatment
4 | CCS(=O)(=O)NC[C@@H]1[C@H](F)CN1C(=O)[C@@H]1C[C@@]1(F)c1ccc(F)cc1-c1c(F)cccc1F [Example 412, N-({(2R,3R)-3-fluoro-1-[(1S,2S)-2-fluoro-2-(2′,5,6′-trifluoro[1,1′-biphenyl]-2-yl)cyclopropane-1-carbonyl]azetidin-2-yl}methyl)ethanesulfonamide] | 111% | 573.33 % of vehicle treatment
5 | CNS(=O)(=O)NC[C@@H]1[C@H](F)CN1C(=O)[C@@H]1C[C@@]1(F)c1ccc(F)cc1-c1c(F)cccc1F [Example 423, N-({(2R,3R)-3-fluoro-1-[(1S,2S)-2-fluoro-2-(2′,5,6′-trifluoro[1,1′-biphenyl]-2-yl)cyclopropane-1-carbonyl]azetidin-2-yl}methyl)-N′-methylsulfuric Diamide] | 102% | 391.59 % of vehicle treatment
6 | C[C@H](NS(C)(=O)=O)[C@@H]1CCN1C(=O)[C@@H]1C[C@@]1(F)c1ccccc1-c1c(F)cccc1F [Example 353, N-[(1S)-1-{(2S)-1-[(1S,2S)-2-(2′,6′-difluoro [1,1′-biphenyl]-2-yl)-2-fluorocyclopropane-1-carbonyl]azetidin-2-yl}ethyl]methanesulfonamide] | 102% | 397.50 % of vehicle treatment
7 | CS(=O)(=O)NC[C@@H]1CCN1C(=O)C1(CO)CC1c1ccc(F)cc1-c1c(F)cccc1F (stereo partly drawn) [Example 434, N-({(2S)-1-[(1R,2S)-1-(hydroxymethyl)-2-(2′,5,6′-trifluoro[1,1′-biphenyl]-2-yl)cyclopropane-1-carbonyl]azetidin-2-yl}methyl)methanesulfonamide, or N-({(2S)-1-[(1S,2R)-1-(hydroxymethyl)-2-(2′,5,6′-trifluoro[1,1′-biphenyl]-2-yl)cyclopropane-1-carbonyl]azetidin-2-yl}methyl)methanesulfonamide] | 96% | 
8 | CS(=O)(=O)NC[C@@H]1[C@H](F)CN1C(=O)C1(CC#N)CC1c1ccccc1-c1c(F)cccc1F (stereo partly drawn) [Example 428, N-({(2R,3R)-1-[(1R,2R)-1-(cyanomethyl)-2-(2′,6′-difluoro[1,1′-biphenyl]-2-yl)cyclopropane-1-carbonyl]-3-fluoroazetidin-2-yl}methyl)methanesulfonamide, or N-({(2R,3R)-1-[(1S,2S)-1-(cyanomethyl)-2-(2′,6′-difluoro[1,1′-biphenyl]-2-yl)cyclopropane-1-carbonyl]-3-fluoroazetidin-2-yl}methyl)methanesulfonamide] | 53% | 
9 | CCS(=O)(=O)NC[C@@H]1[C@H](F)CN1C(=O)[C@@H]1C[C@@]1(F)c1ccc(C)cc1-c1c(F)cccc1F [Example 410, N-({(2R,3R)-1-[(1S,2S)-2-(2′,6′-difluoro-5-methyl[1,1′-biphenyl]-2-yl)-2-fluorocyclopropane-1-carbonyl]-3-fluoroazetidin-2-yl}methyl)ethanesulfonamide] | 103% | 

Further lines, with some results ahead:

Row | OX2R agonist activity (3 μM, %) [1] | SMILES | Wakefulness time (% of vehicle treatment) (Mean) (cynomolgus monkeys)
10 | 96% | CS(=O)(=O)NCC1CCN(C(=O)[C@@H]2C[C@@]2(F)c2ccccc2-c2c(F)cccc2F)C1 (stereo partly drawn) [Example 450, N-({(3R)-1-[(1S,2S)-2-(2′,6′-difluoro[1,1′-biphenyl]-2-yl)-2-fluorocyclopropane-1-carbonyl]pyrrolidin-3-yl}methyl)methanesulfonamide, or N-({(3S)-1-[(1S,2S)-2-(2′,6′-difluoro[1,1′-biphenyl]-2-yl)-2-fluorocyclopropane-1-carbonyl]pyrrolidin-3-yl}methyl)methanesulfonamide] | 
11 | 57% | CC1CCN(C(=O)C2CC2c2ccccc2-c2c(F)cccc2F)CC1NS(C)(=O)=O (racemic) [Example 185, a mixture of rac-N-{(3R,4R)-1-[(1R,2R)-2-(2′,6′-difluoro[1,1′-biphenyl]-2-yl)cyclopropane-1-carbonyl]-4-methylpiperidin-3-yl}methanesulfonamide and rac-N-{(3S,4S)-1-[(1R,2R)-2-(2′,6′-difluoro[1,1′-biphenyl]-2-yl)cyclopropane-1-carbonyl]-4-methylpiperidin-3-yl}methanesulfonamide] | 
12 | 52% | Cc1ccccc1-c1ccccc1C1CC1C(=O)N1CCCC(NS(C)(=O)=O)C1 (racemic) [Example 66, a mixture of rac-N-{(3R)-1-[(1R,2R)-2-(2′-methyl[1,1′-biphenyl]-2-yl)cyclopropane-1-carbonyl]piperidin-3-yl}methanesulfonamide and rac-N-{(3S)-1-[(1R,2R)-2-(2′-methyl[1,1′-biphenyl]-2-yl)cyclopropane-1-carbonyl]piperidin-3-yl}methanesulfonamide] | 
13 | 94% | CS(=O)(=O)N[C@H]1CCN(C(=O)C2C(c3ccccc3-c3c(F)cccc3F)C2(F)F)C1 (stereo partly drawn) [Example 328, N-{(3S)-1-[(1R,3R)-3-(2′,6′-difluoro[1,1′-biphenyl]-2-yl)-2,2-difluorocyclopropane-1-carbonyl]pyrrolidin-3-yl}methanesulfonamide, or N-{(3S)-1-[(1R,3R)-3-(2′,6′-difluoro[1,1′-biphenyl]-2-yl)-2,2-difluorocyclopropane-1-carbonyl]pyrrolidin-3-yl}methanesulfonamide] | 
14 | 102% | CS(=O)(=O)NC1CCCN(C(=O)C2CC2c2ccccc2-c2c(F)cccc2F)C1 (racemic) [Example 39, a mixture of rac-N-{(3R)-1-[(1R,2R)-2-(2′,6′-difluoro[1,1′-biphenyl]-2-yl)cyclopropane-1-carbonyl]piperidin-3-yl}methanesulfonamide and rac-N-{(3S)-1-[(1R,2R)-2-(2′,6′-difluoro[1,1′-biphenyl]-2-yl)cyclopropane-1-carbonyl]piperidin-3-yl}methanesulfonamide] | 
